Source: patent US20060014812A1, “Use of estrogen related receptor-modulating aryl ethers” (priority 2004, published 2006)

Columns and labels:
[1] = target: T1, ligand binding domain of ERR-α (aa 183-424) (Homo sapiens, UniProt P11474); assay: ThermoFluor thermal-shift binding affinity screen against ERR-α ligand binding domain; conditions: 100 μM test compound, 0.1 mg/mL ERR-α, pH 7.6, Kd estimated from melting temperature shift at reference temperature, read-out: TF Kd
T1 construct: His tag (N); thrombin cleavage site (N); made in house; host or cells: E. coli BL21(DE3+)
T1 sequence (P11474 183-423 limits assumed): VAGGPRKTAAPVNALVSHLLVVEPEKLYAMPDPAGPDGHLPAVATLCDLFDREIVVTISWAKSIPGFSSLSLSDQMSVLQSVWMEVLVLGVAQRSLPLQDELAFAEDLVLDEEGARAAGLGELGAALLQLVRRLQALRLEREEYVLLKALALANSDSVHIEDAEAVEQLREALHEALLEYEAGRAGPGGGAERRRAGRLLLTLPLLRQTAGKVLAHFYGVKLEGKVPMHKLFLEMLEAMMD
Experimental: The ligand binding domain of ERR-α (aa 183-424) was subcloned in frame with the N-terminal His tag and the cleavable thrombin site in pET28. The protein was expressed in BL21(DE3^+) following induction with 100 μM IPTG at 16° C. Cells were harvested after 16 hours (h) of induction and lysed in 20 mM Tris pH 7.5, 500 mM NaCl, 5 mM imidazole, 5% glycerol, protease inhibitor cocktail (-EDTA) and 2 mM β-ME. Insoluble material was removed by centrifugation at 40,000×g for 1 hr. Clarified homogenate was applied on a Ni-NTA column and after applying an imidazole gradient the protein was eluted. The protein was further purified on size exclusion chromatography to an apparent homogeneity of 95% as judged by SDS-PAGE chromatography.
Binding affinities of compounds were determined by screening against the ligand binding domain of ERR-α using ThermoFluor® technology (U.S. Pat. No. 6,020,141 and U.S. Pat. No. 6,036,920, and Journal of Biomolecular Screening 6 (6), […], pgs 429-440). Assay plates were prepared by dispensing 2 μL of a protein-dye solution and 2 μL of the test compound in a 384-well plate. The conditions used in the screen were: 0.1 mg/mL ERR-α, 25 mM Na-phosphate buffer at pH 7.6, 200 mM NaCl, 10% glycerol, 16 μM ANS, 2% DMSO and the final concentration of test compound was 100 μM. Finally 1 μL of mineral oil was dispensed on top to prevent evaporation during the high throughput screen (HTS). ThermoFluor® is an HTS assay that measures protein unfolding based on fluorescence detection of the denatured form of the protein. The reporter for the protein unfolding event is the environmentally sensitive dye ANS that is incorporated in the screening buffer. During a typical experiment the 384-well plate is heated at a ramping rate of 1° C./min and the thermal unfolding of the protein is monitored at 1° C. intervals by measuring fluorescence changes detected through a CCD camera. Captured images are integrated and a melting curve is generated that relates fluorescence to fraction of unfolded protein as a function of temperature. For the ERR-α screen, data were collected from 30 to 80° C. at 1° C. intervals and the protein melted under the screening conditions with a characteristic melting temperature, Tm, of 52.1° C. Hits were identified from the screen by measuring an increase in the melting temperature of the protein.
In order to estimate binding affinities, it was taken into account that the oligomeric state of ERR-α, which is a dimer (N2), and that of a single ligand (Lf) can interact per monomer subunit with equal affinity. The melting curve for such a system is described by the following three equilibria: [formula] The first equilibrium describes the denaturation of ERR-α dimers; the second equilibrium describes the dissociation of the first ligand from the single ligand occupied ERR-α dimers (N2L); and the third equilibrium describes the dissociation of the second ligand from the fully occupied ERR-α dimers (N2L2).
Following the derivations of Brandts and Lin (Biochemistry, 29, 6967, 1990) the dissociation constants for the ligands (Kd1^t^m) can be determined at T=Tm for any ligand concentration Lt by solving numerically the conservation of mass equations: [formula] and Ku is in the unfolding equilibrium constant for ERR-α dimers that is calculated from the melting curve of the protein in the absence of ligand as described by Pantoliano et al. (J. Biomolecular Screening, 6, 429, 2001) and Bowie & Sauer (Biochemistry, 28, 7139, 1989).
To compare dissociation constants at a common reference temperature, Tref, the following equation was used: [formula] where • Kd^ref=is the dissociation constant of the ligand at a reference temperature Tref • ΔHb^ref=is the binding enthalpy of the ligand to the protein at a reference temperature Tref. […]

ERR-α = target: T2, ERR-α (Homo sapiens, UniProt P11474); assay: 2-Hybrid cell based luciferase reporter assay (pBIND-Gal4-ERR-α / pACT-SRC2) in HEK293E cells; conditions: 24 hours compound treatment, firefly luciferase normalized to Renilla, average from three independent experiments
T2 construct: expressed in transfected cells; host or cells: HEK293E
T2 sequence (P11474 1-423): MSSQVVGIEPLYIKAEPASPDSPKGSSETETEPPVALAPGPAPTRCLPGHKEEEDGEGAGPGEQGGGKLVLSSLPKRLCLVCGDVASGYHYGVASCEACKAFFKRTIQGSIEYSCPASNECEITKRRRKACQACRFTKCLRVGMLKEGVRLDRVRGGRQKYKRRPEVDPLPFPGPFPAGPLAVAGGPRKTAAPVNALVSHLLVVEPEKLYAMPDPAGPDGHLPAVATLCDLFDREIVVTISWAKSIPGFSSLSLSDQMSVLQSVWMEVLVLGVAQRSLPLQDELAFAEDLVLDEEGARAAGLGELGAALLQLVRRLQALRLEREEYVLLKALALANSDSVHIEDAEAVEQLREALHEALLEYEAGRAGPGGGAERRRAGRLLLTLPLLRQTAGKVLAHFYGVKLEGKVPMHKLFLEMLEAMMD
Experimental: A cell based reporter assay was also used to determine the functional response of the ERR-α hits. Transfections were performed in HEK293E cells that were maintained in DMEM supplemented in glutamine and 10% FBS. Co-transfections of 4 μg of a luciferase reporter plasmid and 4 μg of each pBIND-Gal4-ERR-α and pACT-SRC2 plasmids per T-75 flask were done using Lipofectamine as per manufacturers instructions. Twenty-four hours post-transfection, the cells were seeded in 96-well plates at density of 50,000 cells per well in assay media (DMEM phenol free, 5% charcoal stripped FBS). The cells were allowed to adhere to the bottom of the wells (approximately 5 hours post-seeding) and the compounds were dosed and the final concentration of DMSO was kept below 0.3%. After 24 hours of compound treatment cells were lysed and treated with the Promega Dual-Glo system. Firefly Luciferase activity was read using a luminescence plate reader, and data were normalized against Renilla luciferase activity. Data were fitted using subroutines available from GraphPad. The reported IC50 values shown in the table below are the average from three independent experiments for the compounds tested.

Kd [1]	IC50 (ERR-α)	SMILES
6070 nM	6070 nM	COc1cc(/C=C(\C#N)c2nn(-c3ccccc3)c(N)c2C#N)ccc1Oc1ccc(C(F)(F)F)cc1[N+](=O)[O-] [Example 1, 5-Amino-3-{1-cyano-2-[3-methoxy-4-(2-nitro-4-trifluoromethyl-phenoxy)-phenyl]vinyl}-1-phenyl-1H-pyrazole-4-carbonitrile]
7780 nM	7780 nM	N#C/C(=C\c1ccc(Oc2ccc(C(F)(F)F)cc2[N+](=O)[O-])cc1)c1nn(-c2ccccc2)c(N)c1C#N [Example 2, 5-Amino-3-{1-cyano-2-[4-(2-nitro-4-trifluoromethyl-phenoxy)-phenyl]-vinyl}-1-phenyl-1H-pyrazole-4-carbonitrile]
1710 nM	1710 nM	COc1cc(/C=C(\C#N)c2nn(-c3ccccc3)c(N)c2C#N)ccc1Oc1ccc([N+](=O)[O-])c(C(F)(F)F)c1 [Example 3, 5-Amino-3-{1-cyano-2-[3-methoxy-4-(4-nitro-3-trifluoromethyl-phenoxy)-phenyl]-vinyl}-1-phenyl-1H-pyrazole-4-carbonitrile]
1430 nM	1430 nM	COc1cc(/C=C(\C#N)c2nn(-c3ccccc3)c(N)c2C#N)ccc1Oc1ccc(C#N)c(C(F)(F)F)c1 [Example 4, 5-Amino-3-{1-cyano-2-[4-(4-cyano-3-trifluoromethyl-phenoxy)-3-methoxy-phenyl]-vinyl}-1-phenyl-1H-pyrazole-4-carbonitrile]
26000 nM	26000 nM	N#C/C(=C\c1ccc(Oc2ccccc2)cc1)c1nn(-c2ccccc2)c(N)c1C#N [Example 5, 5-Amino-3-[1-cyano-2-(4-phenoxy-phenyl)-vinyl]-1-phenyl-1H-pyrazole-4-carbonitrile]
359 nM	500 nM	COc1cc(/C=C2\SC(N)=NC2=O)ccc1Oc1ccc(C(F)(F)F)cc1[N+](=O)[O-] [Example 7, 2-Amino-5-[3-methoxy-4-(2-nitro-4-trifluoromethyl-phenoxy)-benzylidene]-thiazol-4-one]
473 nM	140 nM	COc1cc(/C=C2\SC(N)=NC2=O)ccc1Oc1ccc(C#N)c(C(F)(F)F)c1 [Example 8, 4-[4-(2-Amino-4-oxo-4H-thiazol-5-ylidenemethyl)-2-methoxy-phenoxy]-2-trifluoromethyl-benzonitrile]
529 nM	1000 nM	COc1cc(/C=C2\SC(=O)NC2=O)ccc1Oc1ccc([N+](=O)[O-])c(C(F)(F)F)c1 [Example 11, 5-[3-Methoxy-4-(4-nitro-3-trifluoromethyl-phenoxy)-benzylidene]-thiazolidine-2,4-dione]
463 nM	50 nM	COc1cc(/C=C2\SC(=O)NC2=O)ccc1Oc1ccc(C#N)c(C(F)(F)F)c1 [Example 12, 4-[4-(2,4-Dioxo-thiazolidin-5-ylidenemethyl)-2-methoxy-phenoxy]-2-trifluoromethyl-benzonitrile]
114 nM	1500 nM	COC(=O)c1ccc(Oc2ccc(/C=C3\SC(=O)NC3=O)cc2OC)cc1C(F)(F)F [Example 15, 4-[4-(2,4-Dioxo-thiazolidin-5-ylidenemethyl)-2-methoxy-phenoxy]-2-trifluoromethyl-benzoic acid methyl ester]
